Laboratory results published in patent US20020137929A1, “1 - (3-heterocyclylphenyl) isothiourea, -isourea, -guanidine and -amidine herbicidal agents” (Intellectual Property Department, BASF Aktiengesellschaft, priority 1998, published 2002).

Assays:
[1] = tested on: GLXMAW (Soybean, Williams); assay: Preemergence herbicidal evaluation; assay type: in vivo, Glycine max, (L.) Merr. cv Williams; settings: rated 4-5 weeks after treatment
Procedure, shortened: (§1)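 Visual 0-9 rating vs control (stand, vigor, malformation, size, chlorosis, overall appearance), scored 4-5 wk after spraying. Seeded soil cups were treated preemergence with compound in aqueous acetone, ~0.0156-0.500 kg/ha equivalent.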

CYPSE (Flatsedge) = assay: Preemergence weed control under flooded paddy conditions; assay type: in vivo, Cyperus serotinus; settings: rated 3-4 weeks after treatment
Procedure, shortened: (§2)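 Seeds or propagules sown in top 0.5 cm of silt loam soil, flooded 1.5 to 3 cm above surface throughout. Compound in 50/50 v/v aqueous/acetone pipetted into flood water at about 0.0313 to 0.500 kg/ha. Visual 0-9 rating versus control after three to four weeks in greenhouse.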

AMBEL (Ragweed, Common) [2] = assay: Postemergence herbicidal evaluation; assay type: in vivo, Ambrosia artemisifolia; settings: postemergence
Procedure, shortened: (§3)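 ~2-wk seedlings; postemergence spray, 40 psi; vehicle 1:1 acetone:water + 0.5% Tween 20; rate ≈0.0156–0.500 kg/ha; greenhouse hold; scored 4–5 wk after treatment, 0–9 scale vs control; repeat tests averaged.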

ZEAMX (Corn, Field) = assay: Postemergence herbicidal evaluation; assay type: in vivo, Zea mays; settings: postemergence
Procedure, shortened: as §3

CASOB (Sicklepod) = assay: Preemergence herbicidal evaluation; assay type: in vivo, Cassia obtusifolia; settings: rated 4-5 weeks after treatment
Procedure, shortened: as §1

[3] = tested on: SAGPY (Arrowhead (Pygmaea)); assay: Preemergence weed control under flooded paddy conditions; assay type: in vivo, Sagittaria pygmaea; settings: rated 3-4 weeks after treatment
Procedure, shortened: as §2

AMBEL (Ragweed, Common) [4] = assay: Preemergence herbicidal evaluation; assay type: in vivo, Ambrosia artemisifolia; settings: rated 4-5 weeks after treatment
Procedure, shortened: as §1

ECHCG (Barnyardgrass) = assay: Preemergence herbicidal evaluation; assay type: in vivo, Echinochloa crus-galli; settings: rated 4-5 weeks after treatment
Procedure, shortened: as §1

[5] = tested on: GLXMAW (Soybean, Williams); assay: Postemergence herbicidal evaluation; assay type: in vivo, Glycine max, (L.) Merr. cv Williams; settings: postemergence
Procedure, shortened: as §3

ABUTH (Velvetleaf) = assay: Preemergence herbicidal evaluation; assay type: in vivo, Abutilon theophrasti; settings: rated 4-5 weeks after treatment
Procedure, shortened: as §1

[6] = tested on: IPOHE (Morningglory, Ivyleaf); assay: Postemergence herbicidal evaluation; assay type: in vivo, Ipomoea hederacea; settings: postemergence
Procedure, shortened: as §3

GALAP (Galium) = assay: Preemergence herbicidal evaluation; assay type: in vivo, Galium aparine; settings: rated 4-5 weeks after treatment
Procedure, shortened: as §1

SETVI (Foxtail, Green) = assay: Preemergence herbicidal evaluation; assay type: in vivo, Setaria viridis; settings: rated 4-5 weeks after treatment
Procedure, shortened: as §1

CCOC(=O)CN1C(=O)C(SC)SC1=Nc1cc(-n2c(=O)cc(C(F)(F)F)n(C)c2=O)c(F)cc1Cl (centres unmarked) [Compound 125, Ethyl 2-{{2-chloro-5-[3,6-dihydro-3-methyl-2,6-dioxo-4-(trifluoromethyl)-1(2H)-pyrimidinyl]-4-fluorophenyl}imino}-5-(methylthio)-4-oxo-3-thiazolidineacetate]
Preemergence herbicidal rating GLXMAW ([1]; rate 0.0156 kg/ha): 0.0 | Preemergence herbicidal rating GLXMAW ([1]; rate 0.0313 kg/ha): 0.0 | Preemergence herbicidal rating GLXMAW ([1]; rate 0.0625 kg/ha): 0.0 | Preemergence herbicidal rating GLXMAW ([1]; rate 0.1250 kg/ha): 3.0 | Preemergence herbicidal rating GLXMAW ([1]; rate 0.2500 kg/ha): 4.0 | Preemergence herbicidal rating GLXMAW ([1]; rate 0.5000 kg/ha): 7.0 | herbicidal effect rating, CYPSE (CYPSE (Flatsedge); 0.0313 kg/ha): 2.0 | herbicidal effect rating, CYPSE (CYPSE (Flatsedge); 0.0625 kg/ha): 4.0 | herbicidal effect rating, CYPSE (CYPSE (Flatsedge); 0.1250 kg/ha): 9.0 | herbicidal effect rating, CYPSE (CYPSE (Flatsedge); 0.2500 kg/ha): 9.0 | herbicidal rating AMBEL (AMBEL (Ragweed, Common) [2]; rate 0.0156 kg/ha): 3.0 | herbicidal rating AMBEL (AMBEL (Ragweed, Common) [2]; rate 0.0313 kg/ha): 8.0 | herbicidal rating AMBEL (AMBEL (Ragweed, Common) [2]; rate 0.0625 kg/ha): 8.0 | herbicidal rating ZEAMX (ZEAMX (Corn, Field); rate 0.0156 kg/ha): 6.7 | herbicidal rating ZEAMX (ZEAMX (Corn, Field); rate 0.0313 kg/ha): 7.3 | herbicidal rating ZEAMX (ZEAMX (Corn, Field); rate 0.0625 kg/ha): 8.0 | Preemergence herbicidal rating CASOB (CASOB (Sicklepod); rate 0.0156 kg/ha): 0.0 | Preemergence herbicidal rating CASOB (CASOB (Sicklepod); rate 0.0313 kg/ha): 1.0 | Preemergence herbicidal rating CASOB (CASOB (Sicklepod); rate 0.0625 kg/ha): 3.0 | Preemergence herbicidal rating CASOB (CASOB (Sicklepod); rate 0.1250 kg/ha): 2.0 | Preemergence herbicidal rating CASOB (CASOB (Sicklepod); rate 0.2500 kg/ha): 9.0 | Preemergence herbicidal rating CASOB (CASOB (Sicklepod); rate 0.5000 kg/ha): 9.0 | herbicidal effect rating, SAGPY ([3]; 0.0313 kg/ha): 3.0 | herbicidal effect rating, SAGPY ([3]; 0.0625 kg/ha): 4.0 | herbicidal effect rating, SAGPY ([3]; 0.1250 kg/ha): 4.0 | herbicidal effect rating, SAGPY ([3]; 0.2500 kg/ha): 9.0 | Preemergence herbicidal rating AMBEL (AMBEL (Ragweed, Common) [4]; rate 0.0156 kg/ha): 0.0 | Preemergence herbicidal rating AMBEL (AMBEL (Ragweed, Common) [4]; rate 0.0313 kg/ha): 6.0 | Preemergence herbicidal rating AMBEL (AMBEL (Ragweed, Common) [4]; rate 0.0625 kg/ha): 9.0 | Preemergence herbicidal rating AMBEL (AMBEL (Ragweed, Common) [4]; rate 0.1250 kg/ha): 9.0 | Preemergence herbicidal rating AMBEL (AMBEL (Ragweed, Common) [4]; rate 0.2500 kg/ha): 9.0 | Preemergence herbicidal rating AMBEL (AMBEL (Ragweed, Common) [4]; rate 0.5000 kg/ha): 9.0 | Preemergence herbicidal rating ECHCG (ECHCG (Barnyardgrass); rate 0.0156 kg/ha): 0.0 | Preemergence herbicidal rating ECHCG (ECHCG (Barnyardgrass); rate 0.0313 kg/ha): 0.0 | Preemergence herbicidal rating ECHCG (ECHCG (Barnyardgrass); rate 0.0625 kg/ha): 0.0 | Preemergence herbicidal rating ECHCG (ECHCG (Barnyardgrass); rate 0.1250 kg/ha): 3.0 | Preemergence herbicidal rating ECHCG (ECHCG (Barnyardgrass); rate 0.2500 kg/ha): 7.0 | Preemergence herbicidal rating ECHCG (ECHCG (Barnyardgrass); rate 0.5000 kg/ha): 9.0 | herbicidal rating GLXMAW ([5]; rate 0.0156 kg/ha): 7.3 | herbicidal rating GLXMAW ([5]; rate 0.0313 kg/ha): 8.0 | herbicidal rating GLXMAW ([5]; rate 0.0625 kg/ha): 8.7 | Preemergence herbicidal rating ABUTH (ABUTH (Velvetleaf); rate 0.0156 kg/ha): 0.0 | Preemergence herbicidal rating ABUTH (ABUTH (Velvetleaf); rate 0.0313 kg/ha): 2.0 | Preemergence herbicidal rating ABUTH (ABUTH (Velvetleaf); rate 0.0625 kg/ha): 4.0 | Preemergence herbicidal rating ABUTH (ABUTH (Velvetleaf); rate 0.1250 kg/ha): 6.0 | Preemergence herbicidal rating ABUTH (ABUTH (Velvetleaf); rate 0.2500 kg/ha): 9.0 | Preemergence herbicidal rating ABUTH (ABUTH (Velvetleaf); rate 0.5000 kg/ha): 9.0 | herbicidal rating IPOHE ([6]; rate 0.0156 kg/ha): 9.0 | herbicidal rating IPOHE ([6]; rate 0.0313 kg/ha): 9.0 | herbicidal rating IPOHE ([6]; rate 0.0625 kg/ha): 9.0 | Preemergence herbicidal rating GALAP (GALAP (Galium); rate 0.0156 kg/ha): 0.0 | Preemergence herbicidal rating GALAP (GALAP (Galium); rate 0.0313 kg/ha): 0.0 | Preemergence herbicidal rating GALAP (GALAP (Galium); rate 0.0625 kg/ha): 0.0 | Preemergence herbicidal rating GALAP (GALAP (Galium); rate 0.1250 kg/ha): 1.0 | Preemergence herbicidal rating GALAP (GALAP (Galium); rate 0.2500 kg/ha): 7.0 | Preemergence herbicidal rating GALAP (GALAP (Galium); rate 0.5000 kg/ha): 9.0 | Preemergence herbicidal rating SETVI (SETVI (Foxtail, Green); rate 0.0156 kg/ha): 0.0 | Preemergence herbicidal rating SETVI (SETVI (Foxtail, Green); rate 0.0313 kg/ha): 0.0 | Preemergence herbicidal rating SETVI (SETVI (Foxtail, Green); rate 0.0625 kg/ha): 5.0 | Preemergence herbicidal rating SETVI (SETVI (Foxtail, Green); rate 0.1250 kg/ha): 9.0 | Preemergence herbicidal rating SETVI (SETVI (Foxtail, Green); rate 0.2500 kg/ha): 9.0 | Preemergence herbicidal rating SETVI (SETVI (Foxtail, Green); rate 0.5000 kg/ha): 9.0
